Here are results for 44 compounds from patent publication US7790721B2, “Pyrroloquinoxalinone inhibitors of poly(ADP-ribose)polymerase” (Abbott Laboratories, priority 2006, dated 2010).

In general, Ki refers to the dissociation constant of the complex between target and ligand, obtained from inhibition or displacement.

In the first experiment the target is T1, PARP-1 (Homo sapiens, UniProt P09874).
T1 construct: purchased Trevigen (Gaithersburg, Md.); host or cells: E. coli
T1 sequence (P09874 whole entry): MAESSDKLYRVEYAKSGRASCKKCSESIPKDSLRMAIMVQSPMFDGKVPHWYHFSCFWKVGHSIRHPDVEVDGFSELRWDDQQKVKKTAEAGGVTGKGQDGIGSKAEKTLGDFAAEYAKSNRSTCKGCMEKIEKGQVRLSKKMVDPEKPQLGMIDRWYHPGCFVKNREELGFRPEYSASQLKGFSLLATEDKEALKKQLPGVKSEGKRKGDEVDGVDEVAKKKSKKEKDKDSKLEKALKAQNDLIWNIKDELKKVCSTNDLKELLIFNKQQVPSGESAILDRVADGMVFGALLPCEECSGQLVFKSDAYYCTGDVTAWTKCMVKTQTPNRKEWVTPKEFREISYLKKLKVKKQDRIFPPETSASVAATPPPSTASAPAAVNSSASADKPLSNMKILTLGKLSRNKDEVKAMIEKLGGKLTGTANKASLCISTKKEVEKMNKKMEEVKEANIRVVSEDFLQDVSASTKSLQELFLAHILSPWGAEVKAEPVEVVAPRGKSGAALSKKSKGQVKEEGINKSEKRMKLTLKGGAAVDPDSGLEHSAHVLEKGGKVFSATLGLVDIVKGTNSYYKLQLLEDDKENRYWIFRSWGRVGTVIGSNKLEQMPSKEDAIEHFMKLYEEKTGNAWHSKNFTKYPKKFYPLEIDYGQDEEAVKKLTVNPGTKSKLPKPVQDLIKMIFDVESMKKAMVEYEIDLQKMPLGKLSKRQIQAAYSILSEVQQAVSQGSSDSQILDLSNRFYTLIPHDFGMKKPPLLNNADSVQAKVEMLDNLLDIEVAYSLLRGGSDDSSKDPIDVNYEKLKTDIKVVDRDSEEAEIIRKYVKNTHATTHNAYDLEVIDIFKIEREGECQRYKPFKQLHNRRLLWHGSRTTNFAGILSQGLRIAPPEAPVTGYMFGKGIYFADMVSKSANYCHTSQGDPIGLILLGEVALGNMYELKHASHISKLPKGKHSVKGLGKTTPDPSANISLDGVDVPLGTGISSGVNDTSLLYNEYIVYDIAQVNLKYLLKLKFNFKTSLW
Put plainly: PARP1 assay (inhibition of PARP, [3H]-NAD+ / biotinylated histone H1, FlashPlate scintillation). The experiment is classed as biochemical.
Conditions: not given
The compound `O=c1[nH]c2cc(CNCc3ccccc3)ccc2n2cccc12` [Example 11, 7-((benzylamino)methyl)pyrrolo[1,2-a]quinoxalin-4(5H)-one] yielded a Ki of 0.127 µM.

Still in this experiment, the particulars now being: recombinant human PARP, 1 nM enzyme, 1.5 μM [3H]-NAD+; inhibition curves at various substrate concentrations; read-out: PARP-1 (Ki).
“8-(((2-ethoxyethyl)(methyl)amino)methyl)-5,6-dihydro-4H-pyrrolo[1,2-a][1,4]benzodiazepin-4-one [Example 30]”: the Ki amounted to 2.65 µM.

On to `O=c1[nH]c2cc(CNC3CCCCC3)ccc2n2cccc12` [Example 1, 7-((cyclohexylamino)methyl)pyrrolo[1,2-a]quinoxalin-4(5H)-one], for which the Ki was determined as 0.474 µM. Still for that read-out and setting: the figure for `O=c1[nH]c2cc(CNCC3CCCCC3)ccc2n2cccc12` [Example 2, 7-(((cyclohexylmethyl)amino)methyl)pyrrolo[1,2-a]quinoxalin-4(5H)-one] is 0.091 µM. Still for that read-out and setting: the figure for `O=c1[nH]c2cc(CNC3CCC3)ccc2n2cccc12` [Example 3, 7-((cyclobutylamino)methyl)pyrrolo[1,2-a]quinoxalin-4(5H)-one] is 0.083 µM; for `O=c1[nH]c2cc(CNC3CCCC3)ccc2n2cccc12` [Example 4, 7-((cyclopentylamino)methyl)pyrrolo[1,2-a]quinoxalin-4(5H)-one] it is 0.179 µM; for `O=c1[nH]c2ccc(CNC3CCCCC3)cc2n2cccc12` [Example 8, 8-((cyclohexylamino)methyl)pyrrolo[1,2-a]quinoxalin-4(5H)-one] it is 0.099 µM.

As for `O=c1[nH]c2ccc(CNCC3CCCCC3)cc2n2cccc12` [Example 9, 8-(((cyclohexylmethyl)amino)methyl)pyrrolo[1,2-a]quinoxalin-4(5H)-one], the Ki came to 0.206 µM. The same measure, in the same setting: the figure for `O=c1[nH]c2ccc(CNCCc3ccccc3)cc2n2cccc12` [Example 14, 8-(((2-phenylethyl)amino)methyl)pyrrolo[1,2-a]quinoxalin-4(5H)-one] is 0.098 µM; for `O=c1[nH]c2ccc(CNC3CCC3)cc2n2cccc12` [Example 16, 8-((cyclobutylamino)methyl)pyrrolo[1,2-a]quinoxalin-4(5H)-one] it is 0.051 µM; for `O=c1[nH]c2ccc(CN3CCOCC3)cc2n2cccc12` [Example 17, 8-(morpholin-4-ylmethyl)pyrrolo[1,2-a]quinoxalin-4(5H)-one] it is 0.13 µM. Take `O=c1[nH]c2ccc(CNC3CCCC3)cc2n2cccc12` [Example 18, 8-((cyclopentylamino)methyl)pyrrolo[1,2-a]quinoxalin-4(5H)-one]: the Ki was 0.079 µM. The same measure, in the same setting: for `O=c1[nH]c2ccc(CN3CCCCC3)cc2n2cccc12` [Example 19, 8-(piperidin-1-ylmethyl)pyrrolo[1,2-a]quinoxalin-4(5H)-one] the value was 0.047 µM; for `O=c1[nH]c2ccc(CNCc3ccccc3)cc2n2cccc12` [Example 20, 8-((benzylamino)methyl)pyrrolo[1,2-a]quinoxalin-4(5H)-one], 0.131 µM. The same measure, in the same setting: the figure for `O=c1[nH]c2cc(CN3CCCC3)ccc2n2ccnc12` [Example 21, 7-(pyrrolidin-1-ylmethyl)imidazo[1,2-a]quinoxalin-4(5H)-one] is 0.28 µM; for `O=c1[nH]c2cc(CN3CCCCC3)ccc2n2ccnc12` [Example 22, 7-(piperidin-1-ylmethyl)imidazo[1,2-a]quinoxalin-4(5H)-one] it is 0.33 µM. The same measure, in the same setting: for `CN(C)Cc1ccc2c(c1)[nH]c(=O)c1nccn12` [Example 23, 7-((dimethylamino)methyl)imidazo[1,2-a]quinoxalin-4(5H)-one] the value was 0.519 µM; for `O=c1[nH]c2cc(CNCC3CCCCC3)ccc2n2ccnc12` [Example 24, 7-(((cyclohexylmethyl)amino)methyl)imidazo[1,2-a]quinoxalin-4(5H)-one], 5.18 µM; for `O=c1[nH]c2cc(CN3CCOCC3)ccc2n2ccnc12` [Example 25, 7-(morpholin4-ylmethyl)imidazo[1,2-a]quinoxalin-4(5H)-one], 2.85 µM. As to `O=C1NCc2cc(CN3CCCC3)ccc2-n2cccc21` [Example 27, 8-(pyrrolidin-1-ylmethyl)-5,6-dihydro-4H-pyrrolo[1,2-a][1,4]benzodiazepin-4-one], the inhibitory constant (Ki) was determined as 1.12 µM. Turning to `CC(C)NCc1ccc2c(c1)CNC(=O)c1cccn1-2` [Example 28, 8-((isopropylamino)methyl)-5,6-dihydro-4H-pyrrolo[1,2-a][1,4]benzodiazepin-4-one], the Ki turned out to be 1.47 µM. The same measure, in the same setting: for `CN1CCN(Cc2ccc3c(c2)CNC(=O)c2cccn2-3)CC1` [Example 29, 8-((4-methylpiperazin-1-yl)methyl)-5,6-dihydro-4H-pyrrolo[1,2-a][1,4]benzodiazepin-4-one] the value was 1.5 µM; for `O=C1NCc2cc(CNCC3CCCCC3)ccc2-n2cccc21` [Example 31, 8-(((cyclohexylmethyl)amino)methyl)-5,6-dihydro-4H-pyrrolo[1,2-a][1,4]benzodiazepin-4-one], 1.49 µM.

On to `O=C1NCc2cc(CNCc3ccccc3)ccc2-n2cccc21` [Example 32, 8-((benzylamino)methyl)-5,6-dihydro-4H-pyrrolo[1,2-a][1,4]benzodiazepin-4-one], for which the Ki worked out at 0.809 µM. Same read-out and setting: for `O=C1NCc2cc(CNC3CCCC3)ccc2-n2cccc21` [Example 33, 8-((cyclopentylamino)methyl)-5,6-dihydro-4H-pyrrolo[1,2-a][1,4]benzodiazepin-4-one] the value was 0.554 µM. Take `O=C1Nc2cc(CNC3CCCCC3)ccc2N2CCCCC12` (centres unmarked) [Example 36, 3-[(cyclohexylamino)methyl]-7,8,9,10-tetrahydro-5H-pyrido[1,2-a]quinoxalin-6(6aH)-one]: the inhibitory constant (Ki) is 3.49 µM.

As to `O=C1Nc2cc(CN3CCCCC3)ccc2N2CCCCC12` (centres unmarked) [Example 37, 3-(piperidin-1-ylmethyl)-7,8,9,10-tetrahydro-5H-pyrido[1,2-a]quinoxalin-6(6aH)-one], the Ki was 0.098 µM. The same measure, in the same setting: for `CC(C)NCc1ccc2c(c1)NC(=O)C1CCCCN21` (centres unmarked) [Example 38, 3-[(isopropylamino)methyl]-7,8,9,10-tetrahydro-5H-pyrido[1,2-a]quinoxalin-6(6aH)-one] the value was 0.34 µM. Still for that read-out and setting: for `CCN(C)Cc1ccc2c(c1)NC(=O)C1CCCCN21` (centres unmarked) [Example 39, 3-{[ethyl(methyl)amino]methyl}-7,8,9,10-tetrahydro-5H-pyrido[1,2-a]quinoxalin-6(6aH)-one] the value was 0.071 µM; for `CN(Cc1ccc2c(c1)NC(=O)C1CCCCN21)C1CCCCC1` (centres unmarked) [Example 40, 3-{[cyclohexyl(methyl)amino]methyl}-7,8,9,10-tetrahydro-5H-pyrido[1,2-a]quinoxalin-6(6aH)-one], 1.5 µM; for `CC(C)N(C)Cc1ccc2c(c1)NC(=O)C1CCCCN21` (centres unmarked) [Example 41, 3-{[isopropyl(methyl)amino]methyl}-7,8,9,10-tetrahydro-5H-pyrido[1,2-a]quinoxalin-6(6aH)-one], 0.284 µM. Regarding `CN1CCN(Cc2ccc3c(c2)NC(=O)C2CCCCN32)CC1` (centres unmarked) [Example 42, 3-[(4-methylpiperazin-1-yl)methyl]-7,8,9,10-tetrahydro-5H-pyrido[1,2-a]quinoxalin-6(6aH)-one], the Ki was 7.79 µM. Take `O=C1Nc2cc(CN3CCCCC3)ccc2N2CCCC12` (centres unmarked) [Example 45, 7-(piperidin-1-ylmethyl)-1,2,3,3a-tetrahydropyrrolo[1,2-a]quinoxalin-4(5H)-one]: the Ki was 0.146 µM. Same read-out and setting: the figure for `CCN(C)Cc1ccc2c(c1)NC(=O)C1CCCN21` (centres unmarked) [Example 46, 7-{[ethyl(methyl)amino]methyl}-1,2,3,3a-tetrahydropyrrolo[1,2-a]quinoxalin-4(5H)-one] is 0.13 µM; for `CN(Cc1ccc2c(c1)NC(=O)C1CCCN21)C1CCCCC1` (centres unmarked) [Example 47, 7-{[cyclohexyl(methyl)amino]methyl}-1,2,3,3a-tetrahydropyrrolo[1,2-a]quinoxalin-4(5H)-one] it is 2.16 µM; for `CN1CCN(Cc2ccc3c(c2)NC(=O)C2CCCN32)CC1` (centres unmarked) [Example 48, 7-[(4-methylpiperazin-1-yl)methyl]-1,2,3,3a-tetrahydropyrrolo[1,2-a]quinoxalin-4(5H)-one] it is over 9.5 µM. Still for that read-out and setting: for `CN(Cc1ccccc1)Cc1ccc2c(c1)NC(=O)C1CCCN21` (centres unmarked) [Example 49, 7-{[benzyl(methyl)amino]methyl}-1,2,3,3a-tetrahydropyrrolo[1,2-a]quinoxalin-4(5H)-one] the value was 1.35 µM; for `CC(C)N(C)Cc1ccc2c(c1)NC(=O)C1CCCN21` (centres unmarked) [Example 50, 7-{[isopropyl(methyl)amino]methyl}-1,2,3,3a-tetrahydropyrrolo[1,2-a]quinoxalin-4(5H)-one], 1.96 µM. The same measure, in the same setting: for `CS(=O)(=O)N(Cc1ccc2[nH]c(=O)c3cccn3c2c1)C1CC1` [Example 51, N-cyclopropyl-N-[(4-oxo4,5-dihydropyrrolo[1,2-a]quinoxalin-8-yl)methyl]methanesulfonamide] the value was 0.779 µM; for `O=C1CCCN1Cc1ccc2c(c1)[nH]c(=O)c1cccn12` [Example 52, 7-[(2-oxopyrrolidin-1-yl)methyl]pyrrolo[1,2-a]quinoxalin-4(5H)-one], 0.698 µM.

In the case of `CCS(=O)(=O)N(Cc1ccc2[nH]c(=O)c3cccn3c2c1)C1CCC1` [Example 53, N-cyclobutyl-N-[(4-oxo-4,5-dihydropyrrolo[1,2-a]quinoxalin-8-yl)methyl]ethanesulfonamide], the Ki turned out to be 0.917 µM. On the same count and under the same terms, for `CC(C)N(Cc1ccc2[nH]c(=O)c3cccn3c2c1)S(=O)(=O)c1ccccc1` [Example 54, N-isopropyl-N-[(4-oxo-4,5-dihydropyrrolo[1,2-a]quinoxalin-8-yl)methyl]benzenesulfonamide] the value was 0.635 µM; for `CC(=O)N(Cc1ccc2c(c1)[nH]c(=O)c1cccn12)C1CCC1` [Example 55, N-cyclobutyl-N-[(4-oxo-4,5-dihydropyrrolo[1,2-a]quinoxalin-7-yl)methyl]acetamide], 1.5 µM.

For `CS(=O)(=O)N(Cc1ccc2c(c1)[nH]c(=O)c1cccn12)C1CC1` [Example 56, N-cyclopropyl-N-[(4-oxo-4,5-dihydropyrrolo[1,2-a]quinoxalin-7-yl)methyl]methanesulfonamide], the Ki was found to be 0.909 µM.
